# Patent US20050170966A1, “Surfactants and surfactant compositions” (priority 2002, published 2005)
# Experiments:
# Format in all cases: in vivo
# [1] = test system: mixtures of weeds: Cockspur (Echinochloa crus-galli), Fat-hen (Chenopodium album), Smartweed (Polygonum persicaria); assay: Field trial: adjuvant effect on Glyphosate herbicidal activity on mixed weed plots; details: glyphosate 1080 g(a.e.).ha^-1, adjuvant 540 g.ha^-1 (2:1)
# Protocol: This Example tests the effect of adjuvants on Glyphosate herbicidal activity under field conditions. The herbicide was applied to test plots of weeds at a rate of 1080 g(a.e.).ha^−1 (350 l.ha^−1 of spray containing 3.086 g.l^−1 a.e.) with a weight ratio of active to adjuvant of 2:1=540 g(adjuvant).ha^−1. Spray plots were treated with the herbicide formulations, one of each of four adjuvants of the invention (SE1, SE2, SE3, and SE4) a fatty amine ethoxylate (FAE1) for comparison, or left untreated as controls (no weed control). The spray plots were in a completely randomised block design with 3 replicates of 3×5 m plots. the sprayed plots were sprayed using a compressed-air AZO sprayer at a pressure of 2.5 bar, equipped with Teejet XR80015VS nozzles. During this trial, it rained for about 15 minutes about 2 hours after spraying, giving a good indication of the rainfastness off the formulations tested.
# The test plots used mixtures of the following weeds at the 2 to 4 leaf stage:
# The results of spraying were evaluated by visual comparison with untreated control blocks 12, 20 and 35 days after treatment (DAT), assessing chlorosis (chlor) and growth inhibition (inhib) as percentages with 0=no effect and 100=complete kill as compared with the untreated controls.
# [2] = test system: Couchgrass (Agropyron repens); assay: Greenhouse trial of adjuvant with glyphosate; details: for % kill: 7 DAT; for % fresh wt 22 days (foliage): 22 DAT
# Text: This Example goves the results of greenhouse trials to investigate the adjuvant properties of compound SE2, with a fatty amine ethoxylate (FAE1) for comparitison, used in combination with glyphosate (isopropylamine salt?) as a herbicide against Couchgrass (Agropyron repens) and Bindweed (Convolvulus arvensis). Glyphosate doses of 180, 360 and 540 g(a.e.).ha^−1 were used against A. repens and 540, 810 and 1080 g(a.e.).ha^−1 against C. arvensis. The spray volume was 200 l.ha^−1 and ratios of glyphosate (active ingredient) to adjuvant of 2:0.75 (37.5%); 2:0.5 (25%); 2:0.25 (12.5%) and 2:0.1 (5%) (percentage figres in brackets are by weight adjuvant based on glyphosate a.e.) were tested. Weed kill was visually assessed 7, 14 and 21 days after treatment (DAT) and the % fresh weight of foliage was determined 22 and 33 DAT for A. repens and C. arvensis respectively. The % kill results at 7 DAT are set out in Table 3a and the % fresh weight of foliage determined 22 and 33 DAT is reported in Table 3b below. The % fresh weight of foliage is determined 22 and 33 DAT for A. repens and C. arvensis respectively and the results are included in Table 3b below: […]
# [3] = test system: Italian ryegrass; assay: Field trial of glyphosate formulations with adjuvant; details: It R; 6 DAT; glyphosate 1080 g(a.e).ha^-1, adjuvant 405 g.ha^-1
# Protocol: (§1) In this Example, adjuvants of the invention (SE2), plus TAE1 as control, were tested in field trials in formulations including glyphosate (isopropylamine salt) as a herbicide on flax, pea, Savoy cabbage (Sav C) and Italian ryegrass (It R) as target crops. The application rate was 1080 g(a.e).ha^−1, with adjuvant at an application rate of 405 g.ha^−1 (75% of the normal application rate for adjuvants in such formulations of 540 g.ha^−1). The effectiveness of the formulations was by visual assessment of Growth Reduction (Gr Red) and Chlorosis/Necrosis (Chlor) 6 DAT with the values being reported in % (related to an untreated control=0% effect).
# [4] = test system: Savoy cabbage; assay: as above; details: Sav C; 6 DAT; glyphosate 1080 g(a.e).ha^-1, adjuvant 405 g.ha^-1
# Protocol: as §1
# [5] = test system: flax; assay: as above; details: 6 DAT, glyphosate 1080 g(a.e).ha^-1, adjuvant 405 g.ha^-1
# Protocol: as §1
# [6] = test system: pea; assay: as above; details: 6 DAT, glyphosate 1080 g(a.e).ha^-1, adjuvant 405 g.ha^-1
# Protocol: as §1
# [7] = test system: Savoy cabbage; assay: Field trial, lower glyphosate rate, varying adjuvant rate; details: Sav C, 14 DAT
# Protocol: as §1, with “effect). Further field trial runs were carried out similar to Example AE4 on pea and Savoy cabbage as target crops at a lower application rate of glyphosate (570 g(a.e.).ha^−1) and using varying application rates for the adjuvant (135, 270 and 405 g.ha^−1) with the formulation components being mixed in the spray tank.” for “effect).”
# [8] = test system: pea; assay: as above; details: 14 DAT
# Protocol: as §1, with “effect). Further field trial runs were carried out similar to Example AE4 on pea and Savoy cabbage as target crops at a lower application rate of glyphosate (570 g(a.e.).ha^−1) and using varying application rates for the adjuvant (135, 270 and 405 g.ha^−1) with the formulation components being mixed in the spray tank.” for “effect).”
# [9] = glyphosate 570 g(a.e.).ha^-1, adjuvant 135 g/ha
# [10] = glyphosate 570 g(a.e.).ha^-1, adjuvant 270 g/ha
# [11] = glyphosate 570 g(a.e.).ha^-1, adjuvant 405 g/ha
substance,measurement,setting,value
1-[Bis-(2-hydroxyethyl)-amino]-2-hydroxypropane-3-(Alc1 15-ethoxylate) [SE2],inhib (%) growth inhibition,[1]; 12 DAT,70%
same,chlor (%) chlorosis,"[1]; 12 DAT, 0=no effect, 100=complete kill",68%
same,chlor (%) chlorosis,[1]; 20 DAT,75%
same,inhib (%) growth inhibition,[1]; 20 DAT,75%
same,chlor (%) chlorosis,[1]; 35 DAT,77%
same,inhib (%) growth inhibition,[1]; 35 DAT,77%
same,% kill,"[2]; Gly 180, Adj 5% Gly",17.86%
same,% kill,"[2]; Gly 180, Adj 12.5% Gly",17.86%
same,% kill,"[2]; Gly 180, Adj 25% Gly",21.43%
same,% kill,"[2]; Gly 180, Adj 37.5% Gly",21.43%
same,% kill,"[2]; Gly 360, Adj 5% Gly",14.29%
same,% kill,"[2]; Gly 360, Adj 12.5% Gly",28.57%
same,% kill,"[2]; Gly 360, Adj 25% Gly",32.14%
same,% kill,"[2]; Gly 360, Adj 37.5% Gly",25%
same,% kill,"[2]; Gly 540, Adj 5% Gly",28.57%
same,% kill,"[2]; Gly 540, Adj 12.5% Gly",25%
same,% kill,"[2]; Gly 540, Adj 25% Gly",35.71%
same,% kill,"[2]; Gly 540, Adj 37.5% Gly",39.29%
same,% fresh wt 22 days (foliage),"[2]; Gly 180, 5 wt % adjuvant",95.49%
same,% fresh wt 22 days (foliage),"[2]; Gly 180, 12.5 wt % adjuvant",59.81%
same,% fresh wt 22 days (foliage),"[2]; Gly 180, 25 wt % adjuvant",48.07%
same,% fresh wt 22 days (foliage),"[2]; Gly 180, 37.5 wt % adjuvant",53.01%
same,% fresh wt 22 days (foliage),"[2]; Gly 360, 5 wt % adjuvant",63.31%
same,% fresh wt 22 days (foliage),"[2]; Gly 360, 12.5 wt % adjuvant",35.66%
same,% fresh wt 22 days (foliage),"[2]; Gly 360, 25 wt % adjuvant",29.69%
same,% fresh wt 22 days (foliage),"[2]; Gly 360, 37.5 wt % adjuvant",40.02%
same,% fresh wt 22 days (foliage),"[2]; Gly 540, 5 wt % adjuvant",23.83%
same,% fresh wt 22 days (foliage),"[2]; Gly 540, 12.5 wt % adjuvant",19.63%
same,% fresh wt 22 days (foliage),"[2]; Gly 540, 25 wt % adjuvant",19.6%
same,% fresh wt 22 days (foliage),"[2]; Gly 540, 37.5 wt % adjuvant",18.36%
same,Chlor (%) Chlorosis/Necrosis,[3],50%
same,Chlor (%) Chlorosis/Necrosis,[4],40%
same,Chlor (%) Chlorosis/Necrosis,[5],50%
same,Gr Red (%) Growth Reduction,[5],30%
same,Chlor (%) Chlorosis/Necrosis,[6],80%
same,Gr Red (%) Growth Reduction,[6],55%
same,% necrosis,[7]; [9],40%
same,% necrosis,[7]; [10],40%
same,% necrosis,[7]; [11],60%
same,% necrosis,[8]; [9],70%
same,% necrosis,[8]; [10],90%
same,% necrosis,[8]; [11],95%
